{
  "source": "patent US11426371B2",
  "about": "“Compositions and methods for treating cancer” (University of Virginia Patent Foundation, priority 2017, dated 2022)",
  "key": {"[1]": {"system": "normal samples (PBMCs and/or CD34+ cells)", "assay": "Viability of normal samples, MTS and Cell Titer Glo (FIG. 4, Table 2)", "format": "cell-based", "conditions": "24 hours", "protocol": "(§1) AML cell lines and normal samples (PBMCs and/or CD34+ cells) were treated for 24 hours with SACLAC (FIG. 4A-7 cell lines) and similar AC inhibitor SABRAC (2-bromo-N-((2S,3R)-1,3-dihydroxyoctadecan-2-yl)acetamide) (FIG. 4B-four cell lines). Viability was assessed by MTS and Cell Titer Glo viability assays. EC50 values (FIG. 4C) were graphed to visualize fold-change between AML and normal cells with treatment of each compound. […] Cells tested for SABRAC were HL60/VCR and OCI-AML2 AML cell lines and two normal PBMC control samples (PBMC1 and PBMC2). The same four cell types were tested for SACLAC, as well as the AML cell line THP-1 and two normal CD34+ cell control samples (CD34+1 and CD34+2).\n(§2) Next, we tested the toxicity of SACLAC and a similar published AC inhibitor SABRAC^17 to normal hematopoietic cells to ensure that AML cells are selectively targeted by the compound (FIG. 4A). […] This degree of selectivity was unexpected but extremely important for potential clinical use. […] This remarkable increase in selectivity is a surprising discovery that greatly exceeds the predicted similarity in compound behavior that one may expect with a simple substitution of one halogen for another (Cl for Br)."}, "[2]": {"system": "AML cell lines (HL60/VCR, OCI-AML2, THP-1)", "assay": "Viability of AML cell lines, MTS and Cell Titer Glo (FIGS. 2, 4, Table 2)", "format": "cell-based, human", "conditions": "24 hours", "protocol": "Representative human AML cell lines (FIG. 2A; upper and lower panels) HL60/VCR and (FIG. 2B; upper and lower panels) OCI-AML2 were treated with SACLAC for 24 and 48 hours. Viability was assessed by MTS assay at 24 and 48 hours and apoptosis was assessed by flow cytometry at 48 hours. Upper panels represent % viability and lower panels indicate % apoptosis.\nas §1, §2"}},
  "note": "Like-named read-outs stand apart in the source and are kept apart here.",
  "data": [
    {"smiles": "CCCCCCCCCCCCCCC[C@@H](O)[C@H](CO)NC(=O)CBr", "note": "[SABRAC, 2-bromo-N-((2S,3R)-1,3-dihydroxyoctadecan-2-yl)acetamide, reference compound]", "values": [
      {"measurement": "EC50", "setting": "[1]; SACLAC: PBMC1, PBMC2, CD34+1, CD34+2, SABRAC: PBMC1, PBMC2, order of samples not given, read-out: EC50, single normal samples (FIG. 4A, 4B)", "value": 600, "unit": "nM"},
      {"measurement": "EC50", "setting": "[1]; PBMC, 24 h, mean of normal samples (PBMCs and/or CD34+ cells), read-out: EC50 Normal", "value": 450, "unit": "nM"},
      {"measurement": "Fold Change", "setting": "[2]; EC50 Normal versus EC50 AML", "value": 1.25},
      {"measurement": "EC50", "setting": "[2]; Homo sapiens, 24 h, mean of AML cell lines, read-out: EC50 AML", "value": 360, "unit": "nM"}
    ]}
  ]
}
